Patent publication US12084435B2, “Pyridine ring-substituted pyridazinol compounds and derivatives, preparation methods, herbicidal compositions and applications thereof” (Qingdao Kingagroot Chemical Compound Co., Ltd., priority 2018, dated 2024)

Columns and labels:
[1] = tested on: monocotyledonous and dicotyledonous weed; experiment: Post-emergence test, weed control effect (Tables 6 and 7); format: in vivo; set-up: key: 10: completely dead; above 90% growth inhibition rate; above 80% growth inhibition rate; above 70% growth inhibition rate; above 60% growth inhibition rate; above 50% growth inhibition rate; above 40% growth inhibition rate; above 30% growth inhibition rate; above 20% growth inhibition rate; 1: below 20% growth inhibition rate; 0: no effect; conditions: for weed control effect (activity level), Amaranthus retroflexus / weed control effect (activity level), Chenopodiaceae / weed control effect (activity level), Rorippa indica / weed control effect (activity level), Veronica polita: Dose 2000 g/ha, after 3 weeks
Procedure: The above described growth inhibition rates are fresh weight inhibition rates. Experiment of post-emergence test: monocotyledonous and dicotyledonous weed seeds as well as main crop seeds (i.e., wheat, corn, rice, soybean, cotton, oilseed rape, millet and sorghum) were put into aplastic pot loaded with soil, then covered with 0.5-2 cm of soil, and the seeds were allowed to grow in good greenhouse environment. The test plants were treated at 4-5 leaf stage 2-3 week […] sowing. The test compounds of the invention were dissolved in acetone respectively, then added with Tween-80 and diluted by a certain amount of water to give solutions with certain concentrations. The solution was sprayed to the plants with as prayer. The plants were cultured for 3 weeks in the greenhouse.

[2] = tested on: Echinochloa crusgalli, Scirpus juncoides, Sagittaria trifolia L. and Bidens tripartite; experiment: Resistance tests of the collected rice-field weeds; format: in vivo; conditions: common rate; weed seeds collected from Heilongjiang Province of China
Excerpt: Note: The seeds of Echinochloa crusgalli, Scirpus juncoides, Sagittaria trifolia L. and Bidens tripartite were collected from Heilongjiang Province of China.

Row | SMILES | weed control effect (activity level), Amaranthus retroflexus [1] | weed control effect (activity level), Chenopodiaceae [1] | weed control effect (activity level), Rorippa indica [1] | weed control effect (activity level), Veronica polita [1] | also measured
1 | Oc1cc(Cl)nnc1-c1ccc(F)c(F)n1 [Compound 3-18] | 10 | 10 | 10 | 10 | –
2 | Oc1cc(Cl)nnc1-c1cc(F)cc(F)n1 [Compound 3-19] | 10 | 10 | 10 | 10 | –
3 | Oc1cc(Cl)nnc1-c1ccc(Cl)c(F)n1 [Compound 3-30] | 10 | 10 | 10 | 10 | –
4 | CCCCCCCCSC(=O)Oc1cc(Cl)nnc1-c1ccccc1 [Control Compound B, reference compound] | – | – | – | – | comparison experiment (activity level), Digitaria sanguinalis ([1]; Dose 300 g/ha): 0; comparison experiment (activity level), Echinochloa crus-galli ([1]; Dose 300 g/ha): 0; comparison experiment (activity level), Galium aparine ([1]; Dose 300 g/ha): 4 (above 40% growth inhibition rate); comparison experiment (activity level), Rorippa indica ([1]; Dose 300 g/ha): 3 (above 30% growth inhibition rate); comparison experiment (activity level), Setaria viridis ([1]; Dose 300 g/ha): 2 (above 20% growth inhibition rate); comparison experiment (activity level), Veronica polita ([1]; Dose 300 g/ha): 6 (above 60% growth inhibition rate)
5 | CCOC(=O)c1cnn(C)c1S(=O)(=O)NC(=O)Nc1nc(OC)cc(OC)n1 [pyrazosulfuron-ethyl] | – | – | – | – | resistance of the weeds to the herbicide [2]: resistant
